In article PMC8746970, “Determination of the Peptide AWRK6 in Rat Plasma by Liquid Chromatography-Tandem Mass Spectrometry (LC-MS/MS) and Its Application to Pharmacokinetics” (Molecules, 2021):
No end group written: not given here.

Experiment: Stability of AWRK6 QC samples in rat plasma under storage conditions
Assay type: in vitro ADME
Details: for measured concentration of QC sample after storage / relative error of QC sample after storage: rat plasma QC, LC-MS/MS, n = 3; for measured concentration of QC sample after storage: mean ± SD
Experimental: The AWRK6 and IS were dissolved in water at 1.0 mg/mL for stock solution. The AWRK6 calibration standards at 0.05, 0.1, 0.5, 1, 2, 5, and 10 μg/mL were prepared by mixing 50 μL of working solution and 100 μL of blank plasma individually. QC samples of AWRK6 at 0.1, 0.5, and 5 μg/mL were prepared by the same method. The thawed plasma samples (100 μL) were mixed with 50 μL water (or QC), 50 μL IS (1 μg/mL), and 20 μL FA-water (25:75, v/v). A combination of plasma precipitation and liquid–liquid extraction was applied for the extraction of AWRK6 in samples. After adding 200 μL methanol and 100 μL dichloromethane, the mixtures were vortexed for 30 s and centrifuged at 14,000 g for 10 min. The supernatant was filtered by 0.22 μm membrane for LC-MS/MS analysis.
The method was validated for specificity, linearity, LOD, LOQ, LLOQ, precision, accuracy, recovery, matrix effect, and stability according to U.S. FDA guidelines. Specificity was determined using blank plasma samples from 6 rats. Linearity was accessed using calibration standards in triplicate within 3 consecutive days. LOD and LOQ were estimated as concentrations of AWRK6 which generated S/N value of 3 or 10, and they were verified by continuous evaluating the S/N value of 3 LOD samples or 6 LOQ samples. LLOQ was determined using 6 calibration standard samples at 0.05 μg/mL. Precision and accuracy were accessed using QC samples and repeated 6 times within 3 consecutive days. Recovery was calculated by comparing the respective peak areas of the QC samples with the blank plasma samples spiked after extraction (repeated 6 times). Matrix effect was evaluated by comparing the respective peak areas of the QC samples with standard solutions (AWRK6 and IS in water, respectively) at the same concentrations (repeated 6 times). Stability was analyzed using QC samples under different storage conditions including room temperature for 6 h, 3 freeze–thaw cycles, 4 °C for 12 h, and−20 °C for 7 days.

[1] = nominal 0.100 μg/mL, room temperature for 6 h
[2] = nominal 0.100 μg/mL, storage at 4 °C for 12 h
[3] = nominal 0.100 μg/mL, storage at −20 °C for 7 days
[4] = nominal 0.100 μg/mL, three freeze–thaw cycles
[5] = nominal 0.500 μg/mL, room temperature for 6 h
[6] = nominal 0.500 μg/mL, storage at 4 °C for 12 h
[7] = nominal 0.500 μg/mL, storage at −20 °C for 7 days
[8] = nominal 0.500 μg/mL, three freeze–thaw cycles
[9] = nominal 5.000 μg/mL, storage at 4 °C for 12 h
[10] = nominal 5.000 μg/mL, storage at −20 °C for 7 days
[11] = nominal 5.000 μg/mL, three freeze–thaw cycles

## SWVGKHGKKFGLKKHKKH-NH2 (C-terminus assumed) [AWRK6]
Rat plasma QC 0.1, 0.5, 5 μg/mL, room temperature for 6 h, 3 freeze–thaw cycles, and 4 °C for 12 h
  relative error of QC samples (stability acceptable): < 12%
Rat plasma QC 0.1, 0.5, 5 μg/mL, storage at −20 °C for 7 days
  relative error of QC samples (significant degradation): −16.94 to −34.74%
[1]
  measured concentration of QC sample after storage: 0.089 ± 0.007 µg/mL
  relative error of QC sample after storage: −6.315%
[2]
  measured concentration of QC sample after storage: 0.084 ± 0.013 µg/mL
  relative error of QC sample after storage: −11.579%
[3]
  measured concentration of QC sample after storage: 0.062 ± 0.018 µg/mL
  relative error of QC sample after storage: −34.737%
[4]
  measured concentration of QC sample after storage: 0.091 ± 0.008 µg/mL
  relative error of QC sample after storage: −4.210%
[5]
  measured concentration of QC sample after storage: 0.462 ± 0.021 µg/mL
  relative error of QC sample after storage: −4.742%
[6]
  measured concentration of QC sample after storage: 0.442 ± 0.015 µg/mL
  relative error of QC sample after storage: −8.866%
[7]
  measured concentration of QC sample after storage: 0.387 ± 0.047 µg/mL
  relative error of QC sample after storage: −20.206%
[8]
  measured concentration of QC sample after storage: 0.477 ± 0.016 µg/mL
  relative error of QC sample after storage: −1.649%
[9]
  measured concentration of QC sample after storage: 4.881 ± 0.301 µg/mL
  relative error of QC sample after storage: −1.040%
[10]
  measured concentration of QC sample after storage: 4.153 ± 0.442 µg/mL
  relative error of QC sample after storage: −16.940%
[11]
  measured concentration of QC sample after storage: 4.912 ± 0.049 µg/mL
  relative error of QC sample after storage: −0.409%
